The subject of this assay is Pythium ultimum, pathogen of cucumber damping-off. The experiment in a line: Cucumber damping-off seed treatment test (Test Example 1). The class given is in vivo. As to conditions: cucumber seeds, 18° C., 13 days. From the text: An acetone solution of ethaboxam and an acetone solution of clothianidin were mixed to prepare mixed liquids containing ethaboxam and clothianidin in predetermined concentration. These mixed liquids were adhered on the surface of cucumber (Sagamihanjiro) seeds and allowed to stand still overnight. A plastic pot was filled with sandy soil and the seeds were disseminated on it. Then the seeds were covered with sandy soil which had been mixed with a bran medium on which Pythium ultimum, pathogen of cucumber damping-off, had been allowed to grow. They were irrigated and allowed to grow at 18° C. under humidity for 13 days, and thereafter control effect was checked.
As a comparison, acetone solutions containing ethaboxam in the predetermined concentration and acetone solutions containing clothianidin in the predetermined concentration were prepared and subjected to similar tests.
The incidence of disease was calculated by Equation 1 and the control value was calculated by Equation 2 based on the incidence of disease.
A: Incidence of disease of plant in untreated area
B: Incidence of disease of plant in treated area
E=X+Y−(X×Y)/100 “Equation 2”

Actual control value data for two molecules are collected here from patent US8357681B2, “Composition and method for controlling pests” (priority 2008, dated 2013).

For the molecule `CCNc1nc(CC)c(C(=O)NC(C#N)c2cccs2)s1` (stereo not shown) [Ethaboxam, ethaboxam], the Actual control value is, setting by setting: (ethaboxam 5 g ai/100 kg-seed alone) 60%; (ethaboxam 10 g ai/100 kg-seed alone) 73%.
`CN/C(=N\[N+](=O)[O-])NCc1cnc(Cl)s1` [clothianidin] gave an Actual control value (clothianidin 150 g ai/100 kg-seed alone) of 0.0% and an Actual control value (clothianidin 300 g ai/100 kg-seed alone) of 0.0%.
